{
  "source": "patent US6338963B1",
  "about": "“Use of carbon monoxide dependent guanylyl cyclase modifiers to stimulate neuritogenesis” (NeoTherapeutics, Inc., priority 1994, dated 2002)",
  "key": {"[1]": {"tested_on": "basal forebrain cholinergic neurons", "conditions": "mouse NGF 25 μg/ml, Barnett et al.; cited from earlier work"}, "FGF-2 mRNA": {"tested_on": "FGF-2 mRNA", "test": "Northern/slot blot of neurotrophin mRNA from astrocytes: FGF-2", "format": "cell-based, NIH Swiss mice", "set-up": "key to FGF-2 mRNA: The conditions which produced a detectable amount of each of the neurotrophin mRNAs are indicated by a “+”; a “++” indicating that at least twice the detectable amount was present; Those blots which were negative are indicated by a “−”", "conditions": "NGF 40 ng/ml, 24 hours", "description": "(§1) Induction of neurotrophin mRNA was determined by northern blot analysis of astrocytes cultured with AIT-082, NGF, or both. The cells were harvested and RNA extracted at 24 hours after treatment.\n(§2) More particularly, astrocytes from the cerebral cortex of NIH Swiss mice (Harlan) were isolated. Briefly, newborn pups (0-24 hours) were decapitated. Their brains were removed under aseptic conditions and were placed in modified Dulbecco's medium (DMEM) containing 20% heat-inactivated horse serum (Hyclone) (“complete medium”). The neopallium was then dissected from each cerebral hemisphere and minced into 1 mm cubes.\n(§3) The astrocytes were then isolated by mechanical dissociation. The cubes were vortexed at maximum speed for one minute. The cell suspension was then passed first through 75 mm Nitex then through 10 mm Nitex. The resulting cell suspension was diluted in complete medium to a final concentration of one brain per 10 ml of complete medium. Ten milliliters of the diluted cell suspension was added to each 100 mm Falcon tissue culture plate (Fisher). After 3 days the medium was replaced with 10 ml fresh complete medium and subsequently was replaced twice weekly with DMEM containing 10% heat inactivated horse serum (“growth medium”). After two weeks in culture the astrocytes formed a confluent monolayer.\n(§4) For RNA extraction, astrocytes were trypsinized. The astrocytes were then replated onto 100 mm PORN coated plates at a cell density of 10^6 cells per plate (10 ml growth medium). After 2 hrs PBS, guanosine (Guo), or GTP at 10 mM were added to the appropriate plates. Total RNA was harvested from 1.5×10^7 cells for each treatment, 4 and 24 hrs after treatment using TRIzol reagent and supplier protocol (GIBCO BRL/Life Technologies, Inc.). For slot blots, total RNA was bound to Hybond-N filters (Amersham/United States Biochemicals) as described in Transfer and Immobilization of Nucleic Acids and Proteins to S & S Solid Supports (S and S Protocols: Schleicher & Schuell, New Hampshire, USA). Northern blots were also performed using […] total RNA from each sample. These were electrophoresed in 1% agarose gels containing formaldehyde and blotted onto Hybond-N filters according to S and S protocols.\n(§5) The blots were probed with ^32P-labeled cDNA (NGF, NT-3 and BDNF probes) or oligonucleotide probe (FGF-2) by hybridization in Piperazine-N,N′-bis-(2-ethanesulfonic acid) (PIPES) buffer (50 mM PIPES, pH 6.8; 50 mM NaH2PO4; 0.1 M NaCl; 5% SDS and 1 mM EDTA) overnight at 50° C. […] Various concentrations ([…] of total RNA), as determined by spectrophotometry, of each sample were blotted and probed so that quantification could be done after insuring a linear film response. Quantification was performed using MCID Image Analysis (St. Catherine's, Ontario, Canada). […]"}, "PC12 cells": {"tested_on": "PC12 cells", "test": "Neuritogenesis in PC12 cells", "format": "cell-based, rat", "conditions": "NGF 40 ng/ml", "description": "Much of the work performed in the characterization of the compounds of the present invention involved the use of PC12 cells. These cells are derived from a rat pheochromocytoma and when grown in the presence of NGF, extend neurites, cease cell division and assume many characteristics of sympathetic neurons. When cultured in the absence of nerve growth factor (NGF), few PC12 cells have neurites greater than one cell diameter. Addition of saturating concentrations of NGF for 48 hours stimulates neurite outgrowth in about 20-35% of the cells. Because they constitute a homogeneous population of neuronal-like cells, without contaminating astroglia type cells, it is possible to study the direct effects of the purine based compounds on neurite outgrowth in these cells.\nCells cultured in RPMI 1640 with 1.5% horse serum and 1.5% fetal bovine serum were re-plated onto poly-ornithine coated 24-well culture plates (2.5×10^4 cells per well). AIT-082 and NGF were added to the various cultures immediately upon plating. After 48 hours, medium was removed and the cells irnmediately fixed in 10% formalin and PBS for 10 minutes. Cells and neurites were counted within 2 days of fixation.\nA neurite was defined as a process extending from the cell at least 1 cell body diameter in length and displaying a growth cone at its tip. For each treatment, 2 representative microscope fields were counted from each of 6 sister cultures receiving identical treatments. The total number of cells counted per well (approximately 100 cells) and the total number of cells containing neurites in each well were used to determine fraction of neurite-bearing cells. The mean values (±SEM) were then determined for each of the treatments. To facilitate comparison neurite outgrowth was expressed relative to the proportion of cells bearing neurites in the presence of NGF alone (NGF=100%). The effects of compounds with and without NGF were compared by analysis of variance (ANOVA) followed by Tukey's test for significance.\nThe results are shown in FIG. 3 where the curve represents different levels of AIT-082 plus saturating concentrations (40 ng/ml) NGF. The center horizontal line represents control values for cells cultured in the presence of 40 ng/ml NGF alone. Upper and lower horizontal lines are indicative of confidence limits of NGF alone as determined using standard statistical methods."}, "NGF mRNA": {"tested_on": "NGF mRNA", "test": "Northern/slot blot of neurotrophin mRNA from astrocytes: NGF", "format": "cell-based, NIH Swiss mice", "set-up": "key to NGF mRNA: The conditions which produced a detectable amount of each of the neurotrophin mRNAs are indicated by a “+”; a “++” indicating that at least twice the detectable amount was present; Those blots which were negative are indicated by a “−”", "conditions": "NGF 40 ng/ml, 24 hours", "description": "as §1, §2, §3, §4, §5"}, "BDNF mRNA": {"tested_on": "BDNF mRNA", "test": "Northern blot of neurotrophin mRNA from astrocytes: BDNF", "format": "cell-based, NIH Swiss mice", "set-up": "key: The conditions which produced a detectable amount of each of the neurotrophin mRNAs are indicated by a “+”; a “++” indicating that at least twice the detectable amount was present; Those blots which were negative are indicated by a “−”", "conditions": "NGF 40 ng/ml, 24 hours", "description": "as §1, §2, §3\n(§6) For RNA extraction, astrocytes were trypsinized. The astrocytes were then replated onto 100 mm PORN coated plates at a cell density of 10^6 cells per plate (10 ml growth medium). […]\nas §5"}, "NT-3 mRNA": {"tested_on": "NT-3 mRNA", "test": "Northern blot of neurotrophin mRNA from astrocytes: NT-3", "format": "cell-based, NIH Swiss mice", "set-up": "key: The conditions which produced a detectable amount of each of the neurotrophin mRNAs are indicated by a “+”; a “++” indicating that at least twice the detectable amount was present; Those blots which were negative are indicated by a “−”", "conditions": "NGF 40 ng/ml, 24 hours", "description": "as §1, §2, §3, §6, §5"}},
  "data": [
    {"substance": "NGF: nerve growth factor", "values": [
      {"measurement": "rescue of ChAT-positive cells following the FFT lesion", "setting": "[1]", "result": "robust rescue effect"},
      {"measurement": "FGF-2 mRNA", "setting": "FGF-2 mRNA", "result": "−"},
      {"measurement": "Proportion of cells bearing neurites, NGF alone", "setting": "PC12 cells; Methemoglobin 1 μM", "result": "0.2 ± 0.02"},
      {"measurement": "Proportion of cells bearing neurites, NGF alone", "setting": "PC12 cells; Methylene Blue 5 μM", "result": "0.24 ± 0.03"},
      {"measurement": "Proportion of cells bearing neurites, NGF alone", "setting": "PC12 cells; Zn Protoporphyrin IX 1 μM", "result": "0.22 ± 0.03"},
      {"measurement": "Proportion of cells bearing neurites, NGF alone", "setting": "PC12 cells; no inhibitor, 48 hours", "result": "0.2 ± 0.02"},
      {"measurement": "NGF mRNA", "setting": "NGF mRNA", "result": "−"},
      {"measurement": "BDNF mRNA", "setting": "BDNF mRNA", "result": "+"},
      {"measurement": "NT-3 mRNA", "setting": "NT-3 mRNA", "result": "−"}
    ]}
  ]
}
